Measurements from patent US9999650B2, “Peptide and peptidomimetic inhibitors” (Ra Pharmaceuticals, Inc., priority 2012, dated 2018).
Numbered stars: 1 amine (or outer) side, 2 acyl side, 3 side chain; on linkers, the order of the positions; unused ones are H or OH. Bridge positions count the residues as written; N and C are the ends. Square brackets hold non-standard residues; d marks the D form. Ends that are not written are not given here. Peptide text beside a SMILES is read from it. * marks the point of attachment. Ala(1H-tetrazol-5-yl) = N[C@@H](Cc1nnn[nH]1)C(=O)O; Trp(7-aza) = N[C@@H](Cc1c[nH]c2ncccc12)C(=O)O; Phe(4-CH2NH2) = NCc1ccc(C[C@H](N)C(=O)O)cc1; NMeW = CN[C@@H](Cc1c[nH]c2ccccc12)C(=O)O; X3 = O=C(C(Cc1ccc(Br)s1)N[*:1])[*:2]; mXylylene = c1cc(C[*:1])cc(C[*:2])c1; NMeY = CN[C@@H](Cc1ccc(O)cc1)C(=O)O; NMeT = CN[C@H](C(=O)O)[C@@H](C)O; X8 = CC(C)(C)[C@H](N*)c1ccccn1; dPhg = N[C@@H](C(=O)O)c1ccccc1; Chg = N[C@H](C(=O)O)C1CCCCC1; Pen = CC(C)(S)[C@H](N)C(=O)O; Phg = N[C@H](C(=O)O)c1ccccc1; Tle = CC(C)(C)[C@H](N)C(=O)O; αMeP = C[C@@]1(C(=O)O)CCCN1; NMeS = CN[C@@H](CO)C(=O)O; Ac5c = NC1(C(=O)O)CCCC1; Nva = CCC[C@H](N)C(=O)O; Thp = NC1(C(=O)O)CCOCC1; Mpa = O=C(O)CCS

Biological target: T1, human plasma kallikrein (Homo sapiens, UniProt P03952)
T1 construct: purchased Enzyme Research Laboratories HPKa 1303
T1 sequence (P03952 20-390 limits assumed): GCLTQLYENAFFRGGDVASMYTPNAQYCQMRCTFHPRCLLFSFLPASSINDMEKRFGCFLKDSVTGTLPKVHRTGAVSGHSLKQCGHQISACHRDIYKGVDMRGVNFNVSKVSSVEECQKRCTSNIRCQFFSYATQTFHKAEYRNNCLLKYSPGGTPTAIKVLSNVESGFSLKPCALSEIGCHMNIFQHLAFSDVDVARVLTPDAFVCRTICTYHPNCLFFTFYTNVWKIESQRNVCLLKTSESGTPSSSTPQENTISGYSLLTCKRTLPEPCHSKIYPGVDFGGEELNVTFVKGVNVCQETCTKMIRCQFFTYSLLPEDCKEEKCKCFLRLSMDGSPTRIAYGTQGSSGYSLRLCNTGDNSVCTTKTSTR
T1 sequence (P03952 391-638 limits assumed): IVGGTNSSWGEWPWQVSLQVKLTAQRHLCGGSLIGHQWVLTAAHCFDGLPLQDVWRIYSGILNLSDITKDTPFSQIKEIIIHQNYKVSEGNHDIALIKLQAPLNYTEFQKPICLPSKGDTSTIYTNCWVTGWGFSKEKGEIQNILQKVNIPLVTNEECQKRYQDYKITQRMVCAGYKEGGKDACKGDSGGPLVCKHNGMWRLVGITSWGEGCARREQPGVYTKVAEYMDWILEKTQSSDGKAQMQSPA
Assay: Enzyme inhibition assay (fluorogenic substrate H-Pro-Phe-Arg-AMC)
Format: biochemical
Settings: Kallikrein inhibitory activity; 1 nM activated human kallikrein, 500 μM H-Pro-Phe-Arg-AMC, 1 hour room temperature; read-out: Avg. IC50
Protocol: Activated human plasma kallikrein (Enzyme Research Laboratories, HPKa 1303) was reacted with H-Pro-Phe-Arg-7-amido-4-methylcoumarin (H-Pro-Pre-Arg-AMC) (a fluorogenic substrate for plasma as well as pancreatic and urinary kallikreins; Bachem I-1295) and candidate inhibitory peptides to determine the IC50 of the inhibitor.
Ten 8-fold serial dilutions of peptides (10 mM DMSO stocks) were performed in DMSO and then added to TCNB (50 mM Tris-HCl pH 7.2, 150 mM NaCl, 10 mM CaCl2, 0.05% Brij-35) and sonicated. 50 μL of the peptide dilutions were added to microtitre plates (96 well, black non-binding surface, Corning, 3650) and incubated for 5 minutes at room temperature with 4 nM activated human kallikrein (final concentration after addition of fluorogenic substrate: 1 nM). The samples were then incubated for 1 hour at room temperature with 2 mM H-Pro-Phe-Arg-AMC (final concentration 500 μM). Relative Fluorescence Units (RFU) were measured at excitation/emission 360 nm/460 nm by a SpectraMax M3.

Row | IC50 [nM] | Molecule
1 | 1.9 | C[C@@H]1NC(=O)C2(CCCC2)NC(=O)CCSCc2cccc(c2)CSC[C@@H](C(=O)N[C@@H](CCCNC(=N)N)C(=O)N[C@H](C(N)=O)C(C)(C)C)NC(=O)[C@H](C2CCCCC2)NC1=O [Compound R2169, [mXylyl(1,5)](des-NH2)C-(Cyclo-L)-A-Chg-CR-Tbg-NH2] ([Mpa][Ac5c]A[Chg]CR[Tle]-NH2; linker 1-5 via mXylylene)
2 | 4680 | CC(C)(C)[C@H](NC(=O)[C@H](CCCNC(=N)N)NC(=O)[C@@H]1CSCc2cccc(c2)/C=C/CCC(=O)N2CCC[C@H]2C(=O)N[C@@H](C2CCCCC2)C(=O)N1)C(N)=O [Compound R2260]
3 | 2000 | CC[C@H](C)[C@H](NC(=O)[C@H](CO)NC(=O)[C@H](CCC(=O)O)NC(=O)[C@H](CS)NC(=O)[C@@H](N)CCSC)C(=O)N[C@@H](CS)C(=O)N[C@@H](CCCNC(=N)N)C(=O)N[C@H](C(N)=O)C(C)C [Compound R2007, MCESICRV-NH2] (H-MCESICRV-NH2; N-terminus assumed)
4 | 35.6 | CC(C)(C)[C@H](NC(=O)[C@H](CCCNC(=N)N)NC(=O)[C@@H]1CSCc2cccc(c2)CSCCC(=O)N2CCC[C@H]2C(=O)N[C@@H](C2CCCCC2)C(=O)N1)c1ccccn1 [Compound R2196, [mXylyl(1,4)](des-NH2)C-P-Chg-CR-(S)-2,2-dimethyl-1-(pyridin-2-yl)propan-1-amine] ([Mpa]P[Chg]CR-X8; linker 1-4 via mXylylene)
5 | > 7930 | CC[C@H](C)[C@@H]1NC(=O)[C@H](CO)NC(=O)CSCc2cccc(c2)CSC[C@@H](C(=O)N[C@@H](CCCNC(=N)N)C(=O)N[C@H](C(N)=O)C(C)C)NC1=O [Compound R2154, [mXylyl(1,4)](2-SAc)-SICRV-NH2]
6 | > 3500 | CC(C)[C@H](NC(=O)[C@H](CCCNC(=N)N)NC(=O)[C@@H]1CSCc2cccc(c2)CSCCC(=O)N2CCC[C@H]2C(=O)N[C@@H](C2CCCCC2)C(=O)N1)C(=O)O [Compound R2183, [mXylyl(1,4)](des-NH2)C-P-Chg-CR-V-OH] ([Mpa]P[Chg]CRV-OH; linker 1-4 via mXylylene)
7 | 2000 | CCC[C@H](N)C(=O)N[C@H]1CSCc2cccc(c2)CSC[C@@H](C(=O)N[C@@H](Cc2ccc(CN)cc2)C(=O)N[C@H](C(N)=O)C(C)C)NC(=O)[C@H]([C@@H](C)CC)NC(=O)[C@H](CO)NC(=O)[C@H](CCC(=O)O)NC1=O [Compound R2021, [mXylyl(2,6)]Nvl-CESIC-Phe(4-CH2NH2)-V-NH2] (H-[Nva]CESIC[Phe(4-CH2NH2)]V-NH2; linker 2-6 via mXylylene)
8 | > 100000 | CC(=O)N[C@H](C(=O)N[C@H]1CSCc2cccc(c2)CSC[C@@H](C(N)=O)NC(=O)[C@@H]2CCCN2C(=O)[C@H](C(C)C)NC(=O)[C@H](CCCNC(=N)N)NC1=O)C1CCCCC1 [Compound R2160, [mXylyl(2,6)]Ac-Chg-CR-V-PC-NH2] (Ac-[Chg]CRVPC-NH2; linker 2-6 via mXylylene)
9 | 1460 | CCC[C@H](N)C(=O)N[C@@H]1C(=O)N[C@@H](CCC(=O)O)C(=O)N[C@@H](CO)C(=O)N[C@@H]([C@@H](C)CC)C(=O)N[C@H](C(=O)N[C@@H](CCCNC(=N)N)C(=O)N[C@H](C(N)=O)C(C)C)CSCc2cccc(c2)CSC1(C)C [Compound R2031, [mXylyl(2,6)]Nvl-Pen-ESICRV-NH2] (H-[Nva][Pen]ESICRV-NH2; linker 2-6 via mXylylene)
10 | 13 | CC[C@H](C)[C@@H]1NC(=O)[C@H](CO)NC(=O)[C@H](Cc2nn[nH]n2)NC(=O)[C@@H](NC(=O)[C@@H](N)CCSC)CSCc2cccc(c2)CSC[C@@H](C(=O)N[C@@H](CCCNC(=N)N)C(=O)N[C@H](C(N)=O)C(C)C)NC1=O [Compound R2020, [mXylyl(2,6)]MC-Asp(T)-SICRV-NH2] (H-MC[Ala(1H-tetrazol-5-yl)]SICRV-NH2; linker 2-6 via mXylylene)
11 | > 100000 | CC[C@@H](C)[C@@H]1NC(=O)CCCCC/C=C/C[C@@H](C(=O)N[C@@H](CCCNC(=N)N)C(=O)N[C@H](C(N)=O)C(C)C)NC1=O [Compound R2242]
12 | > 2190 | C[C@@H]1NC(=O)C2(CCOCC2)NC(=O)CCSCc2cccc(c2)CSC[C@@H](C(=O)N[C@@H](Cc2c[nH]c3ncccc23)C(=O)N[C@H](C(N)=O)C(C)(C)C)NC(=O)[C@H](C2CCCCC2)NC1=O [Compound R2147, [mXylyl(1,5)](des-NH2)C-AcPyr-A-Chg-C-AzaTrp-Tbg-NH2] ([Mpa][Thp]A[Chg]C[Trp(7-aza)][Tle]-NH2; linker 1-5 via mXylylene)
13 | 58.8 | CC(C)C[C@H](NC(=O)[C@@H](NC(=O)[C@H](CCCNC(=N)N)NC(=O)[C@@H]1CSCc2cccc(c2)CSCCC(=O)N2CCC[C@H]2C(=O)N[C@@H](c2ccccc2)C(=O)N1)C(C)(C)C)C(=O)O [Compound R2202, [mXylyl(1,4)](des-NH2)C-P-Phg-CR-Tbg-L-OH] ([Mpa]P[Phg]CR[Tle]L-OH; linker 1-4 via mXylylene)
14 | > 4520 | CC(=O)N[C@@H](CS)C(=O)N[C@@H](CC(N)=O)C(=O)N[C@@H](Cc1ccc(O)cc1)C(=O)N(C)[C@@H](Cc1c[nH]c2ccccc12)C(=O)N[C@@H](CO)C(=O)N1CCC[C@H]1C(=O)N[C@@H](Cc1c[nH]c2ccccc12)C(=O)N[C@H](C(=O)N[C@@H](C)C(=O)N[C@@H](CS)C(N)=O)[C@@H](C)O [Compound R2238, Ac-CNY-nMeW-SPWTAC-NH2] (Ac-CNY[NMeW]SPWTAC-NH2)
15 | 6.8 | CCC[C@H](N)C(=O)N[C@H]1CSCc2cccc(c2)CSC[C@@H](C(=O)N[C@@H](CCCNC(=N)N)C(=O)N[C@H](C(N)=O)C(C)(C)C)NC(=O)[C@H](c2ccccc2)NC(=O)[C@H](CO)NC(=O)[C@H](CCC(=O)O)NC1=O [Compound R2013, [mXylyl(2,6)]Nvl-CES-Phg-CR-Tbg-NH2] (H-[Nva]CES[Phg]CR[Tle]-NH2; linker 2-6 via mXylylene)
16 | 6.8 | CC(C)(C)[C@H](NC(=O)[C@H](CCCNC(=N)N)NC(=O)[C@@H]1CSCc2cccc(c2)CSCCC(=O)N2CCC[C@@]2(C)C(=O)N[C@@H](C2CCCCC2)C(=O)N1)C(N)=O [Compound R2180, [mXylyl(1,4)](des-NH2)C-(a-Me)P-Chg-CR-Tbg-NH2] ([Mpa][αMeP][Chg]CR[Tle]-NH2; linker 1-4 via mXylylene)
17 | > 50000 | CC[C@@H](C)[C@@H]1NC(=O)[C@@H]2CCCN2C(=O)CCCCCC/C=C/C[C@@H](C(=O)N[C@@H](CCCNC(=N)N)C(=O)N[C@H](C(N)=O)C(C)C)NC1=O [Compound R2245]
18 | > 6580 | CC(=O)N[C@@H](CS)C(=O)N[C@@H](CC(N)=O)C(=O)N[C@@H](Cc1ccc(O)cc1)C(=O)N[C@@H](Cc1c[nH]c2ccccc12)C(=O)N[C@H](CO)C(=O)N1CCC[C@H]1C(=O)N[C@@H](Cc1c[nH]c2ccccc12)C(=O)N[C@H](C(=O)N[C@@H](C)C(=O)N[C@@H](CS)C(N)=O)[C@@H](C)O [Compound R2230, Ac-CNYWsPWTAC-NH2] (Ac-CNYW[dS]PWTAC-NH2)
19 | 2.7 | CC(=O)N[C@H]1CSSC[C@@H](C(N)=O)NC(=O)[C@H](C)NC(=O)[C@H]([C@@H](C)O)NC(=O)[C@H](Cc2c[nH]c3ccccc23)NC(=O)[C@@H]2CCCN2C(=O)[C@H](CO)NC(=O)[C@H](Cc2c[nH]c3ccccc23)NC(=O)[C@H](Cc2ccc(O)cc2)NC(=O)[C@H](CC(N)=O)NC1=O [Compound R2142, [cyclo(1,10)]Ac-CNYWSPWTAC-NH2] (Ac-CNYWSPWTAC-NH2; disulfide 1-10)
20 | > 4700 | CC(C)(C)[C@H](NC(=O)[C@H](CCCNC(=N)N)NC(=O)[C@@H]1CSCc2cccc(c2)CSCCC(=O)N2CCC[C@H]2C(=O)N[C@H](c2ccccc2)C(=O)N1)C(N)=O [Compound R2187, [mXylyl(1,4)](des-NH2)C-P-(D)Phg-CR-Tbg-NH2] ([Mpa]P[dPhg]CR[Tle]-NH2; linker 1-4 via mXylylene)
21 | > 100000 | CC(=O)N[C@H]1CSCc2cccc(c2)CSC[C@@H](C(N)=O)NC(=O)[C@H](C)NC(=O)[C@H]([C@@H](C)O)N(C)C(=O)[C@H](Cc2c[nH]c3ccccc23)NC(=O)[C@@H]2CCCN2C(=O)[C@H](CO)N(C)C(=O)[C@H](Cc2c[nH]c3ccccc23)NC(=O)[C@H](Cc2ccc(O)cc2)N(C)C(=O)[C@H](CC(N)=O)NC1=O [Compound R2223, [mXylyl(1,10)]Ac-CN-nMeY-W-nMeS-PW-nMeT-AC-NH2] (Ac-CN[NMeY]W[NMeS]PW[NMeT]AC-NH2; linker 1-10 via mXylylene)
22 | > 20100 | CC(=O)N[C@H](C(=O)N[C@H]1CSCc2cccc(c2)CSC[C@@H](C(N)=O)NC(=O)[C@H](C)NC(=O)[C@H](C(C)C)NC(=O)[C@H](CCCNC(=N)N)NC1=O)C1CCCCC1 [Compound R2159, [mXylyl(2,6)]Ac-Chg-CR-V-AC-NH2] (Ac-[Chg]CRVAC-NH2; linker 2-6 via mXylylene)
23 | > 17300 | MCNYWSP-NH2 [Compound R2115, MCNYWSP-NH2]
24 | > 100000 | CC(C)(C)[C@H](NC(=O)C(Cc1ccc(Br)s1)NC(=O)[C@@H]1CSCc2cccc(c2)CSCCC(=O)N2CCC[C@H]2C(=O)N[C@H](c2ccccc2)C(=O)N1)C(N)=O (stereo partly drawn) [Compound R2220, [mXylyl(1,4)](des-NH2)C-P-(D-Phg)-C-ABP-Tbg-NH2] ([Mpa]P[dPhg]C[X3][Tle]-NH2; linker 1-4 via mXylylene)
